Values joined by “and” are separate entries in the source; they are usually repeats but may differ in a detail not shown here. Equal entries are not always repeated. “Also recorded” adds a separate entry of the source. Where two headings read alike, the source gives them in different places.
Assays:
human MRGPRX2 = target: T1, human MRGPRX2 (Homo sapiens, UniProt Q96LB1); test: Intracellular Ca2+ mobilisation assay in HEK293 cells transiently transfected with human MRGPRX2; assay type: cell-based; details: for Activation of human MRGPRX2 (increase in intracellular Ca2+): HEK293 cells transfected with human MRGPRX2, fluoroquinolones up to 1000 μg/mL; for EC50: human MRGPRX2-expressing HEK293 cells, mean ± SD of three independent experiments, read-out: EC50 on changes in intracellular Ca2+ levels, Human MRGPRX2 (converted)
T1 construct: expressed in transfected cells; host or cells: HEK293 (JCRB Cell Bank), transient, pcDNA3.1(+) vector
T1 sequence (Q96LB1 1-330): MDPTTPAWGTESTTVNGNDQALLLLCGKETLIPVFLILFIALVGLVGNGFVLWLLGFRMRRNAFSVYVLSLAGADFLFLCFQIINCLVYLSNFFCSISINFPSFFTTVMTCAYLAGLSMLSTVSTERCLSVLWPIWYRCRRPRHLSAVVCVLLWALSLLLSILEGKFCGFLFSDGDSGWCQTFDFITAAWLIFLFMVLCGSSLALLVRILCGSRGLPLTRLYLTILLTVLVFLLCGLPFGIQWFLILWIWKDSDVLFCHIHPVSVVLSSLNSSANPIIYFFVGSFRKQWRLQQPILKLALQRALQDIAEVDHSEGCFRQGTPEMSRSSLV
Method: (§1) HEK293 cells obtained from the JCRB Cell Bank (Osaka, Japan) were transfected transiently with dog MRGPRD, MRGPRF, MRGPRG, or MRGPRX2 or human MRGPRX2. Lipofectamine 2000 Reagent (Thermo Fisher Scientific Inc.) and pcDNA3.1(+) vector containing each gene were diluted and mixed using Opti-MEM I Reduced Serum Medium (Thermo Fisher Scientific Inc.) to prepare lipid-DNA complexes (final concentrations: lipofectamine 2.5 μL/mL and DNA 2,500 ng/mL). HEK293 cells were detached using TrypLE™ Express (Thermo Fisher Scientific Inc.) and prepared to 7 × 10^5 cells/mL with the lipid-DNA complex. Thereafter, 25 μL cells (1.75 × 10^4 cells/well) were seeded per well in 384-well flat-bottomed plates (Corning Incorporated, Corning, NY, USA) and incubated overnight at 37 °C under 5% CO2 conditions. Cells treated with plasmid-free lipid solution were used as negative control (non-transfected cells).
Test articles were dissolved in HBSS (pH 7.4, Thermo Fisher Scientific Inc., Waltham, MA, USA) supplemented with 20 mM HEPES (Sigma-Aldrich Co. LLC.) and 0.05 vol% bovine serum albumin (BSA, Sigma-Aldrich Co. LLC.). […] Intracellular Ca^2+ levels were analysed using Calcium Kit II-iCellux (Dojindo Molecular Technologies, Inc., Kumamoto, Japan), according to the manufacturer's instructions. HEK293 cells (1.75 × 10^4 cells/well) were loaded with 1.25 mM probenecid and calcium probe for 45 min at 25 °C. Changes in fluorescence intensities before and after addition of the test articles were measured over time using FLIPR Tetra (Molecular Devices, LLC., Sunnyvale, CA, USA) with excitation at 470–495 nm and emission at 515–575 nm. The test articles were added at 10 s after beginning the measurements. Samples were measured in duplicate or quadruplicate. The data were analysed using ScreenWorks (Molecular Devices, LLC. Version 3.2.0.14) to determine the difference between maximal and minimal fluorescence intensity (max–min).
(§2) Data represent the mean ± SD of three animals for distribution study or three independent assays for Ca^2+ mobilisation. EC50 of each test article used in the Ca^2+ mobilisation assay was calculated using the sigmoid Emax model. These analyses were performed by using the SAS System Release 8.2 software (SAS Institute Inc., Cary, NC, USA).

dog MRGPRX2 = dog MRGPRX2 (Canis lupus familiaris, UniProt A0A4Y5P885); test: Intracellular Ca2+ mobilisation assay in HEK293 cells transiently transfected with dog MRGPRX2; assay type: cell-based; details: for Difference in EC50 values between dog MRGPRX2 and human MRGPRX2: EC50 lower in dog MRGPRX2-expressing cells than in human MRGPRX2-expressing cells; for EC50: mean ± SD of three independent experiments; for Activation of dog MRGPRX2 (increase in intracellular Ca2+): HEK293 cells transfected with dog MRGPRX2, fluoroquinolones up to 1000 μg/mL
Method: as §1
Test articles were dissolved in HBSS (pH 7.4, Thermo Fisher Scientific Inc., Waltham, MA, USA) supplemented with 20 mM HEPES (Sigma-Aldrich Co. LLC.) and 0.05 vol% bovine serum albumin (BSA, Sigma-Aldrich Co. LLC.). The highest concentration of the fluoroquinolones was set at 1000 μg/mL based on previous reports at which the test substances induced marked intracellular Ca^2+ mobilisation in human MRGPRX2-expressing HEK293 cells[11] or caused histamine release in rat or human mast cells[16],[25],[36]. Intracellular Ca^2+ levels were analysed using Calcium Kit II-iCellux (Dojindo Molecular Technologies, Inc., Kumamoto, Japan), according to the manufacturer's instructions. HEK293 cells (1.75 × 10^4 cells/well) were loaded with 1.25 mM probenecid and calcium probe for 45 min at 25 °C. Changes in fluorescence intensities before and after addition of the test articles were measured over time using FLIPR Tetra (Molecular Devices, LLC., Sunnyvale, CA, USA) with excitation at 470–495 nm and emission at 515–575 nm. The test articles were added at 10 s after beginning the measurements. Samples were measured in duplicate or quadruplicate. The data were analysed using ScreenWorks (Molecular Devices, LLC. Version 3.2.0.14) to determine the difference between maximal and minimal fluorescence intensity (max–min).
as §2

[1] = test system: non-transfected HEK293 cells; test: Intracellular Ca2+ levels in non-transfected HEK293 cells (negative control cells); assay type: cell-based, human; details: 1,000 μg/mL; data excluded from the analysis
Method: HEK293 cells obtained from the JCRB Cell Bank (Osaka, Japan) were transfected transiently with dog MRGPRD, MRGPRF, MRGPRG, or MRGPRX2 or human MRGPRX2. Lipofectamine 2000 Reagent (Thermo Fisher Scientific Inc.) and pcDNA3.1(+) vector containing each gene were diluted and mixed using Opti-MEM I Reduced Serum Medium (Thermo Fisher Scientific Inc.) to prepare lipid-DNA complexes (final concentrations: lipofectamine 2.5 μL/mL and DNA 2,500 ng/mL). HEK293 cells were detached using TrypLE™ Express (Thermo Fisher Scientific Inc.) and prepared to 7 × 10^5 cells/mL with the lipid-DNA complex. […]
Test articles were dissolved in HBSS (pH 7.4, Thermo Fisher Scientific Inc., Waltham, MA, USA) supplemented with 20 mM HEPES (Sigma-Aldrich Co. LLC.) and 0.05 vol% bovine serum albumin (BSA, Sigma-Aldrich Co. LLC.). […] Intracellular Ca^2+ levels were analysed using Calcium Kit II-iCellux (Dojindo Molecular Technologies, Inc., Kumamoto, Japan), according to the manufacturer's instructions. […] Changes in fluorescence intensities before and after addition of the test articles were measured over time using FLIPR Tetra (Molecular Devices, LLC., Sunnyvale, CA, USA) with excitation at 470–495 nm and emission at 515–575 nm. […] Samples were measured in duplicate or quadruplicate. […]

[2] = test system: dispersed canine skin mast cells; design: method as in PMID 10864147; details: cited from earlier work
[3] = design: method as in PMID 9635500; details: cited from earlier work
mouse Mrgprb2 = test system: mouse Mrgprb2; design: method as in PMID 25517090; details: cited from earlier work
[4] = EC50 on changes in intracellular Ca2+ levels, Dog MRGPRX2, dog MRGPRX2-expressing HEK293 cells

Chain of dog MRGPRX2 (A0A4Y5P885 entry or part of it): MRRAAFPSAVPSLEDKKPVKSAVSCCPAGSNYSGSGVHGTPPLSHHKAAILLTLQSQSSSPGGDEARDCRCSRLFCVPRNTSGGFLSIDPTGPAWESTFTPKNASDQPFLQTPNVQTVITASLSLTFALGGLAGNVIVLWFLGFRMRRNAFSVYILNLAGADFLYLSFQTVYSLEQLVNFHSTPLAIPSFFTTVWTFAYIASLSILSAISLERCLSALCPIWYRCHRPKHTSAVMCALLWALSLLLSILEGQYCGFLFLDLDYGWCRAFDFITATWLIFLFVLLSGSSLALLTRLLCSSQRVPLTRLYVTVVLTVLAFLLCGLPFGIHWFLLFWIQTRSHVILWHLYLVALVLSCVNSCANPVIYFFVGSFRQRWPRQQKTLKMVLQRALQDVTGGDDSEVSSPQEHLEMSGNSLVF

Compound | Activation of human MRGPRX2 (increase in intracellular Ca2+) (human MRGPRX2) | Difference in EC50 values between dog MRGPRX2 and human MRGPRX2 (dog MRGPRX2) | EC50 (dog MRGPRX2; [4]) | Activation of dog MRGPRX2 (increase in intracellular Ca2+) (dog MRGPRX2) | Nonspecific increase in intracellular Ca2+ levels in non-transfected cells [1] | EC50 (human MRGPRX2) [µM] | EC50 (dog MRGPRX2; dog MRGPRX2-expressing HEK293 cells, read-out: EC50 on changes in intracellular Ca2+ levels, Dog MRGPRX2 (converted)) [µM] | Concentration inducing histamine release from dispersed canine skin mast cells [2] [µg/mL] | Histamine release in dogs [3] | EC50 in mouse Mrgprb2-expressing cells compared to human MRGPRX2-expressing cells (mouse Mrgprb2; higher in mouse) [fold] | EC50 (mouse Mrgprb2; read-out: EC50 in mouse Mrgprb2-expressing cells) [µM]
O=C(O)c1cn(C2CC2)c2cc(N3CCNCC3)c(F)cc2c1=O [CPFX, ciprofloxacin] | concentration-dependent | ca. sevenfold | ~45.3 µM and 43.8 µM | responded | induced nonspecific increase | – | – | – | – | – | –
COc1c(N2CCNC(C)C2)c(F)cc2c(=O)c(C(=O)O)cn(C3CC3)c12 (centres unmarked) [GFLX, gatifloxacin] | concentration-dependent | – | – | responded | – | 529 | 210 | – | – | – | –
C[C@H]1COc2c(N3CCN(C)CC3)c(F)cc3c(=O)c(C(=O)O)cn1c23 [LVFX, levofloxacin] | concentration-dependent | ca. sevenfold | ~166 µM and 163 µM | responded | – | 1060 | – | ≥ 30 | – | – | –
C[C@H]1COc2c(C3(N)CC3)c(F)cc3c(=O)c(C(=O)O)cn1c23 [PZFX, pazufloxacin] | did not activate | – | – | did not activate | – | – | – | – | does not induce histamine release; also recorded: does not cause histamine release | – | –
substance P | – | – | – | – | – | – | – | – | – | 360 | 54
